Experiments:
[1] = tested on: glutamate in blood cells and plasma (GPT, GOT, 2-ketoglutarate dehydrogenase, GDH); assay: In-vitro glutamate levels and conversion in blood cell fraction and plasma; assay type: biochemical, rat; details: for blood cell (cellular) glutamate levels / plasma glutamate levels: incubation of blood with GDH co-factors in vitro
Procedure: (§1) Induction of rat blood glutamate metabolism and glutamate concentration determination—Fresh rat blood samples incubated at 37° C. were supplemented every 15 minutes or as noted with oxaloacetate and/or pyruvate (final concentration of 1 mM at pH 7.4).
(§2) At indicated time intervals, 150 μl aliquots were removed and centrifuged at 1,300×g for 7 minutes. Plasma volume (i.e., supernatant) was measured and was combined with identical volume of perchloric acid (PCA) to precipitate protein content. Precipitation was allowed to proceed for 10 minutes on ice and thereafter samples were centrifuged. Cell pellet (i.e., erythrocytes, lymphocytes and platelets) was lysed by osmotic shock following resuspension in double distilled water up to a final volume of 150 μl. A second step of protein precipitation was then performed by adding 150 μl of PCA [[…]]. Plasma and cell PCA-precipitated fractions were centrifuged at 16,000×g for 10 minutes and pellets were discarded.
Supernatant glutamate concentration was determined according to the fluorometric procedure of Graham and Aprison [(1996) Anal. Biochem. 15(3):487-97]. In brief: 20 μl aliquot of PCA precipitated fraction was added to 480 μl HG buffer containing 15 u of glutamate dehydrogenase in 0.2 mM NAD, 0.3 M glycine, 2.4% hydrazine hydrate adjusted to pH 6.8 with H2SO4 [1 N] and incubated at room temperature for 30-45 minutes. Fluorescence was measured at 460 nm following excitation at 350 nm. All measurements were performed alongside a glutamate standard curve at a glutamate concentration range of 0-6 μM. All glutamate measurements were performed in duplicates.
Results—Glutamate levels were therefore determined individually in blood cell fractions (closed symbols) and in plasma (open symbols), following repeated additions (arrows) of 1 mM pyruvate (squares), 1 mM oxaloacetate (triangles) or of a mixture of 1 mM pyruvate and 1 mM oxaloacetate (diamonds) (FIG. 2A). Glutamate determination was conducted as described in Example 1.

[2] = tested on: rat blood plasma glutamate (GOT, GPT); assay: Glutamate conversion in rat blood plasma by pyruvate and oxaloacetate analogues; assay type: biochemical; details: for % of remaining Glutamate: rat blood plasma, 1 mM of each co-substrate
Procedure: A number of glutamate modifying enzymes were tested for their ability to enhance glutamate conversion in rat blood plasma. Table 1 below summarizes the results obtained with 1 mM of each co-substrate.

[3] = Blood concentrations of pyruvate and oxaloacetate during intravenous infusion; assay type: in vivo, rat; details: intravenous 50 μMoles/min each for 30 min
Procedure: Glutamate analyses of in-vivo treated blood samples were carried out according to the fluorometric procedure of Graham and Aprison [(1996) Anal. Biochem. 15(3):487-97]. Pyruvate concentration determination—Blood Pyruvate concentration was measured using the Sigma Diagnostics Pyruvate reagents according to manufacturer's instructions. In brief: the procedure utilizes lactate dehydrogenase which in the presence of excess NADH catalyzes almost complete conversion of pyruvate into lactate with a concomitant production of NAD. The reduction of absorbance at 340 nm due to the oxidation of NADH into NAD is the measure of the amount of pyruvate originally present.
(§3) Oxaloacetate concentration determination—Blood oxaloacetate concentration was measured using the same procedure as for pyruvate but using malate dehydrogenase which catalyses the conversion of oxaloacetate into malate along with the oxidation of NADH into NAD.
Results—The effect on glutamate levels via pyruvate and oxaloacetate administration through an intravenous catheter at a rate of 50 μMoles/minute for a duration of 30 minutes was determined. Blood concentrations of glutamate, pyruvate and oxaloacetate were monitored in parallel. […] However, as soon as the administration of pyruvate and oxaloacetate was stopped, their blood concentration decreased and the glutamate level increased concomitantly.

[4] = tested on: brain to blood glutamate efflux; assay: Brain-to-blood [3H]Glu efflux after intracerebroventricular injection; details: first 10 minutes after injection in lateral ventricle, n=8
Procedure: Catheterization of the tail vein (for drug injections) and of the femoral vein (for blood aliquot withdrawals) was performed using PE10 polyethylene tubing linked to PE50 polyethylene tubing. […] A 27G steel cannula was implanted in the right lateral ventricle using the following stereotactic coordinates: 0.8 mm posterior to bregma; lateral 1.4 mm; depth: 4 mm from skull or 3.5 mm from dura. A [^3H] glutamate solution in phosphate buffered saline (PBS) was injected into the lateral ventricle through the implanted cannula using a Hamilton syringe (25 μl) connected to PE20 tube filled with solution. A total volume of 11 μl was injected within approximately 2 minutes.
For radioactivity determination, 50 μl blood samples were diluted in 500 μl H2O and added to 16 ml of scintillation fluid. Measured cpms were corrected for quenching as determined by comparing the measured cpms of a set volume of [^3H] glutamate added to water or to diluted blood. Body temperature was maintained with a lamp and rectal temperature was monitored. Rat pulse rate was monitored using a Periflux system 500 and a laser Doppler probe placed onto the skull.
Intravenous injections of pyruvate and oxaloacetate diluted in phosphate buffered saline (PBS) were carried out at a rate of 0.05 ml/minute for 30 minutes with a Pharmacia pump P-1.

[5] = Glutamate life time in blood after bolus intravenous injection of labelled glutamate; assay type: in vivo, rat
Procedure: Results—Glutamate normalization may be accomplished by estimating the rate of disappearance of [^14C] glutamate from the blood, by methodology detailed in the preceding example. Administration of a bolus intravenous injections of 11 μCi radio-labeled glutamate in the absence or presence of non-radioactive glutamate was conducted and the presence of radioactivity in blood was monitored over time (FIG. 19).

[6] = tested on: blood and plasma glutamate (GOT); assay: Effect of diethyloxaloacetate on glutamate in rat blood and plasma in vitro; assay type: biochemical; details: 10 mM
Procedure: Thereafter, the effect of diethyloxaloacetate on Glutamate levels was assessed. Glutamate levels were determined in rat blood samples upon incubation in the absence or presence of 10 mM diethyloxaloacetate. […] FIG. 31 represents the amount of plasma glutamate converted probably into α-ketoglutarate following the activation of GOT as a function of time by the presence of 10 mM diethyloxaloacetate.

[7] = Conversion of diethyloxaloacetate into oxaloacetate in rat blood and tissue homogenates; assay type: in vitro ADME; details: 10 mM diethyloxaloacetate
Procedure: as §3
The use of an oxaloacetate prodrug, which following in vivo administration, is converted to oxaloacetate, may obviate this problem. Thus the commercially available oxaloacetate diethylester (FIG. 27B) was considered in this context. Conversion of oxaloacetate diethylester into oxaloacetate following incubation with tissue homogenates derived from rat liver, colon, ileum, jejunum and duodenum was investigated.

[8] = tested on: blood glutamate (blood resident GPT and GOT); assay: In-vitro scavenging of glutamate in whole rat blood by activation of resident enzymes; assay type: biochemical; details: 37° C., 1 mM co-substrate and/or 2.5 u/ml GPT
Procedure: as §1, §2
Supernatant glutamate concentration was determined according to the fluorometric procedure of Graham and Aprison [(1996) Anal. Biochem. 15(3):487-97]. […] Fluorescence was measured at 460 nm following excitation at 350 nm. […]

[9] = biological target: T1, glutamate, 2-ketoglutarate (Escherichia coli, UniProt P00509); details: cited from earlier work
T1 sequence (P00509 whole entry, looked up): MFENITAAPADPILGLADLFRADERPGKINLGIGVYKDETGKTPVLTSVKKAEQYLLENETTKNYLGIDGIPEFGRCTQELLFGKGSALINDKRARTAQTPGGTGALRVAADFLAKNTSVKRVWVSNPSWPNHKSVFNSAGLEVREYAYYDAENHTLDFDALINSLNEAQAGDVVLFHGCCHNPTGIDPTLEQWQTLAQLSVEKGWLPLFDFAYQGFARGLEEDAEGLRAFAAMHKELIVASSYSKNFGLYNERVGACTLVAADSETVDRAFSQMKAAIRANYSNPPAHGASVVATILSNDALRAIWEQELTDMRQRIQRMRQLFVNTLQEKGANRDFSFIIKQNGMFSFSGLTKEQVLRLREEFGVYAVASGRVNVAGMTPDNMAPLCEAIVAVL

[10] = normal blood glutamate concentration of 209 μM
[11] = rat blood in vitro, 24 hours, 37° C.

Molecule: Nc1ncnc2c1ncn2[C@@H]1O[C@H](COP(=O)(O)OP(=O)(O)O)[C@@H](O)[C@H]1O [ADP]
- blood cell (cellular) glutamate levels [1]: did not significantly alter glutamate levels
- plasma glutamate levels [1]: increased plasma glutamate levels

Molecule: O=CC(=O)O [Glyoxalate]
- % of remaining Glutamate [2]: 74%

Molecule: CC(C)C[C@H](N)C(=O)O [Leucine]
- blood cell (cellular) glutamate levels [1]: did not significantly alter glutamate levels
- plasma glutamate levels [1]: increased plasma glutamate levels

Molecule: NC(=O)c1ccc[n+]([C@@H]2O[C@H](COP(=O)([O-])OP(=O)(O)OC[C@H]3O[C@@H](n4cnc5c(N)ncnc54)[C@H](O)[C@@H]3O)[C@@H](O)[C@H]2O)c1 [NAD]
- blood cell (cellular) glutamate levels [1]: decrease in blood cell glutamate levels
- plasma glutamate levels [1]: increase in plasma glutamate levels

Molecule: O=C(O)CC(=O)C(=O)O [Oxaloacetate]
- blood concentration built up [3]: 450 µM

Molecule: CC(=O)C(=O)O [Pyruvate]
- blood concentration built up [3]: 450 µM

Molecule: O=CCCC(=O)O [Succinic semialdehyde]
- % of remaining Glutamate [2]: 78%

Molecule: N[C@@H](CCC(=O)O)C(=O)O [[^3H] glutamate, glutamate]
- rate of appearance of radioactivity in blood, of the amount input in the brain per minute [4]: 0.8%±0.1
- glutamate eliminated per minute ([5]; blood glutamate 3.4 mM): 69 nmoles glutamate/ml blood
- elimination half-life in blood ([5]; blood glutamate 3.4 mM after intraperitoneal 2 mMoles of glutamate): 24.6 min
- elimination rate constant ([5]; normal blood glutamate concentration): 0.035 min⁻¹
- elimination half-life in blood [5, 10]: 19.3 min
- glutamate eliminated per minute [5, 10]: 5.4 nmoles of glutamate/ml blood

Molecule: CCOC(=O)CC(=O)C(=O)OCC [diethyloxaloacetate]
- glutamate blood levels [6, 11]: did not affect glutamate blood levels
- plasma glutamate ([6]; rat blood plasma in vitro, following 9 hours incubation): significant increase in plasma glutamate
- increase in basal oxaloacetate levels ([7]; liver and sections of rat gut mucosa, within 15 minutes): 400%
- increase of blood oxaloacetate [7, 11]: 240%

Molecule: Cc1ncc(COP(=O)(O)O)c(C=O)c1O [pyridoxal phosphate]
- enhancement of pyruvate and oxaloacetate-mediated decrease in cellular or plasma glutamate ([1]; 15 μM pyridoxal phosphate): No significant effects

Molecule: CCC(=O)C(=O)O [α-Ketobutyrate]
- decrease in plasma glutamate levels ([2]; 0.5 mM, rat plasma): no effect
- glutamate degradation as compared to basal glutamate levels ([2]; 2 mM, rat plasma): 40%
- conversion of glutamate in the presence of oxaloacetate ([2]; in the presence of 0.25 mM oxaloacetate): enhanced conversion of glutamate
- % of remaining Glutamate [2]: 97%

Molecule: O=C(O)C(=O)CO [β-Hydroxypyruvate]
- % of remaining Glutamate [2]: 74%

Molecule: O=C(O)C(=O)Cc1ccccc1 [β-Phenylpyruvate]
- % of remaining Glutamate [2]: 76%

Molecule: α-Isocaproate
- % of remaining Glutamate [2]: 83%

B1: GPT: glutamate pyruvate transaminase enzyme added at 2.5 u/ml (protein, UniProt P24298 2-496, looked up)
Alanine aminotransferase 1: ASSTGDRSQAVRHGLRAKVLTLDGMNPRVRRVEYAVRGPIVQRALELEQELRQGVKKPFTEVIRANIGDAQAMGQRPITFLRQVLALCVNPDLLSSPNFPDDAKKRAERILQACGGHSLGAYSVSSGIQLIREDVARYIERRDGGIPADPNNVFLSTGASDAIVTVLKLLVAGEGHTRTGVLIPIPQYPLYSATLAELGAVQVDYYLDEERAWALDVAELHRALGQARDHCRPRALCVINPGNPTGQVQTRECIEAVIRFAFEERLFLLADEVYQDNVYAAGSQFHSFKKVLMEMGPPYAGQQELASFHSTSKGYMGECGFRGGYVEVVNMDAAVQQQMLKLMSVRLCPPVPGQALLDLVVSPPAPTDPSFAQFQAEKQAVLAELAAKAKLTEQVFNEAPGISCNPVQGAMYSFPRVQLPPRAVERAQELGLAPDMFFCLRLLEETGICVVPGSGFGQREGTYHFRMTILPPLEKLRLLLEKLSRFHAKFTLEYS
- blood glutamate levels [8]: significant increase in blood glutamate

B2: E. coli GOT: E. coli glutamate oxaloacetate transaminase, GenBank Accession No. D90731.1 (protein, UniProt P00509 1-396, looked up)
Aspartate aminotransferase: T1 sequence (P00509 whole entry, looked up)
- affinity for 2-ketoglutarate [9]: about 0.2 mM
- affinity for glutamate [9]: about 8 mM

Source: patent publication US7767204B2, “Method and composition for protecting neuronal tissue from damage induced by elevated glutamate levels” (Yeda Research And Development Co. Ltd., priority 2002, dated 2010)
